Assay results: the supplement of paper PMC13207355
Where a name gives a salt, the structure may show the parent alone.

Assays:
Details in all cases: exposure time: 72 h
[1] = test system: E13 (patient-derived glioblastoma stem cells of classical subtype); experiment: surviving fraction (nuclei count normalised to DMSO); higher = more cells surviving (less toxic)
[2] = test system: E31 (patient-derived glioblastoma stem cells of proneural subtype); experiment: as above
[3] = test system: FT3469 (normal neural stem cell line); experiment: as above
[4] = test system: E34 (patient-derived glioblastoma stem cells of proneural subtype); experiment: as above
[5] = test system: E57 (patient-derived glioblastoma stem cells of mesenchymal subtype); experiment: as above
[6] = test system: E21 (patient-derived glioblastoma stem cells of mesenchymal subtype); experiment: as above
[7] = test system: E28 (patient-derived glioblastoma stem cells of classical subtype); experiment: as above
[8] = test system: E13; experiment: phenotypic distance (Euclidean, principal components) from DMSO controls (arbitrary units); higher = stronger morphological change
[9] = test system: E31; experiment: as above
[10] = test system: FT3469; experiment: as above
[11] = test system: E34; experiment: as above
[12] = test system: E57; experiment: as above
[13] = test system: E21; experiment: as above
[14] = test system: E28; experiment: as above
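Throughout, for phenotypic distance (Euclidean, principal components) from DMSO controls: cell Painting imaging in 384-well plates, CellProfiler features reduced to at least 20 principal components, Euclidean distance versus same-plate DMSO vehicle wells (0.1% v/v), median over six images per well.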
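Throughout, for surviving fraction (nuclei count normalised to DMSO): nuclei counted by high-content imaging of Hoechst-stained cells in laminin-coated 384-well plates, relative to 0.1% DMSO vehicle wells, with staurosporine as cell-death control.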

Cc1cc(/C=C/c2ccc3cc(N(C)C)ccc3[n+]2C)c(C)n1-c1ccccc1 [Pyrvinium pamoate]
Details	phenotypic distance	surviving fraction
[1], 4.1 nM	–	0.769
[1], 12.3 nM	–	0.742
[1], 37 nM	–	0.57
[1], 111.1 nM	–	0.408
[1], 333.3 nM	–	0.479
[1], 1000 nM	–	0.264
[1], 3000 nM	–	0.0823
[2], 4.1 nM	–	1.01
[2], 12.3 nM	–	0.828
[2], 37 nM	–	0.484
[2], 111.1 nM	–	0.21
[2], 333.3 nM	–	0.146
[2], 1000 nM	–	0.0654
[2], 3000 nM	–	0
[3], 4.1 nM	–	0.97
[3], 12.3 nM	–	0.882
[3], 37 nM	–	0.866
[3], 111.1 nM	–	0.677
[3], 333.3 nM	–	0.61
[3], 1000 nM	–	0.461
[3], 3000 nM	–	0.0541
[4], 4.1 nM	–	0.92
[4], 12.3 nM	–	0.867
[4], 37 nM	–	0.645
[4], 111.1 nM	–	0.578
[4], 333.3 nM	–	0.667
[4], 1000 nM	–	0.443
[4], 3000 nM	–	0.5
[5], 4.1 nM	–	1.05
[5], 12.3 nM	–	1.01
[5], 37 nM	–	0.785
[5], 111.1 nM	–	0.364
[5], 333.3 nM	–	0.272
[5], 1000 nM	–	0.155
[5], 3000 nM	–	0.0231
[6], 4.1 nM	–	0.856
[6], 12.3 nM	–	0.815
[6], 37 nM	–	0.577
[6], 111.1 nM	–	0.467
[6], 333.3 nM	–	0.425
[6], 1000 nM	–	0.149
[6], 3000 nM	–	0.00213
[7], 4.1 nM	–	0.853
[7], 12.3 nM	–	0.704
[7], 37 nM	–	0.547
[7], 111.1 nM	–	0.278
[7], 333.3 nM	–	0.195
[7], 1000 nM	–	0.106
[7], 3000 nM	–	0.0134
[8], 4.1 nM	4.29	–
[8], 12.3 nM	1.32	–
[8], 37 nM	2.18	–
[8], 111.1 nM	4.63	–
[8], 333.3 nM	4.15	–
[8], 1000 nM	4.49	–
[8], 3000 nM	6.77	–
[9], 4.1 nM	1.33	–
[9], 12.3 nM	1.04	–
[9], 37 nM	2.33	–
[9], 111.1 nM	5.34	–
[9], 333.3 nM	7.12	–
[9], 1000 nM	9.54	–
[9], 3000 nM	18.8	–
[10], 4.1 nM	1.38	–
[10], 12.3 nM	1.31	–
[10], 37 nM	2.27	–
[10], 111.1 nM	2.94	–
[10], 333.3 nM	3.78	–
[10], 1000 nM	7.4	–
[10], 3000 nM	13	–
[11], 4.1 nM	0.966	–
[11], 12.3 nM	0.752	–
[11], 37 nM	1.33	–
[11], 111.1 nM	3.14	–
[11], 333.3 nM	3.58	–
[11], 1000 nM	4.06	–
[11], 3000 nM	6.46	–
[12], 4.1 nM	1.23	–
[12], 12.3 nM	0.86	–
[12], 37 nM	2.14	–
[12], 111.1 nM	6.51	–
[12], 333.3 nM	7.55	–
[12], 1000 nM	8.44	–
[12], 3000 nM	11.2	–
[13], 4.1 nM	0.978	–
[13], 12.3 nM	1.16	–
[13], 37 nM	2.86	–
[13], 111.1 nM	4.87	–
[13], 333.3 nM	4.65	–
[13], 1000 nM	6.33	–
[13], 3000 nM	23.7	–
[14], 4.1 nM	0.873	–
[14], 12.3 nM	1.67	–
[14], 37 nM	2.93	–
[14], 111.1 nM	4.57	–
[14], 333.3 nM	4.5	–
[14], 1000 nM	4.93	–
[14], 3000 nM	9.86	–

Clc1ccc(C(Cn2ccnc2)OCc2ccsc2Cl)c(Cl)c1 (centres undefined) [Tioconazole]
Details	phenotypic distance	surviving fraction
[1], 4.1 nM	–	0.996
[1], 12.3 nM	–	0.959
[1], 37 nM	–	1.02
[1], 111.1 nM	–	0.98
[1], 333.3 nM	–	0.992
[1], 1000 nM	–	1.01
[1], 3000 nM	–	0.857
[2], 4.1 nM	–	0.857
[2], 12.3 nM	–	0.993
[2], 37 nM	–	1.08
[2], 111.1 nM	–	1.11
[2], 333.3 nM	–	0.972
[2], 1000 nM	–	1.02
[2], 3000 nM	–	0.969
[3], 4.1 nM	–	0.871
[3], 12.3 nM	–	1.12
[3], 37 nM	–	0.948
[3], 111.1 nM	–	1.08
[3], 333.3 nM	–	1.01
[3], 1000 nM	–	0.829
[3], 3000 nM	–	0.787
[4], 4.1 nM	–	1.14
[4], 12.3 nM	–	0.871
[4], 37 nM	–	0.929
[4], 111.1 nM	–	0.959
[4], 333.3 nM	–	0.947
[4], 1000 nM	–	0.894
[4], 3000 nM	–	0.776
[5], 4.1 nM	–	0.962
[5], 12.3 nM	–	0.998
[5], 37 nM	–	0.997
[5], 111.1 nM	–	1.04
[5], 333.3 nM	–	0.973
[5], 1000 nM	–	0.922
[5], 3000 nM	–	0.988
[6], 4.1 nM	–	1.05
[6], 12.3 nM	–	1.01
[6], 37 nM	–	0.998
[6], 111.1 nM	–	1.03
[6], 333.3 nM	–	1
[6], 1000 nM	–	0.876
[6], 3000 nM	–	0.887
[7], 4.1 nM	–	1.06
[7], 12.3 nM	–	1.11
[7], 37 nM	–	1.05
[7], 111.1 nM	–	1.13
[7], 333.3 nM	–	1.03
[7], 1000 nM	–	1.02
[7], 3000 nM	–	0.843
[8], 4.1 nM	0.434	–
[8], 12.3 nM	0.591	–
[8], 37 nM	0.952	–
[8], 111.1 nM	0.719	–
[8], 333.3 nM	0.807	–
[8], 1000 nM	0.71	–
[8], 3000 nM	0.892	–
[9], 4.1 nM	0.731	–
[9], 12.3 nM	0.483	–
[9], 37 nM	0.639	–
[9], 111.1 nM	0.611	–
[9], 333.3 nM	0.715	–
[9], 1000 nM	0.918	–
[9], 3000 nM	1.46	–
[10], 4.1 nM	1.14	–
[10], 12.3 nM	1.57	–
[10], 37 nM	0.375	–
[10], 111.1 nM	0.556	–
[10], 333.3 nM	0.563	–
[10], 1000 nM	0.69	–
[10], 3000 nM	1.37	–
[11], 4.1 nM	0.558	–
[11], 12.3 nM	0.535	–
[11], 37 nM	0.702	–
[11], 111.1 nM	0.614	–
[11], 333.3 nM	0.634	–
[11], 1000 nM	0.943	–
[11], 3000 nM	1.08	–
[12], 4.1 nM	0.709	–
[12], 12.3 nM	0.457	–
[12], 37 nM	0.46	–
[12], 111.1 nM	0.302	–
[12], 333.3 nM	0.722	–
[12], 1000 nM	0.606	–
[12], 3000 nM	1.69	–
[13], 4.1 nM	0.639	–
[13], 12.3 nM	0.48	–
[13], 37 nM	0.312	–
[13], 111.1 nM	0.6	–
[13], 333.3 nM	0.27	–
[13], 1000 nM	0.663	–
[13], 3000 nM	1.33	–
[14], 4.1 nM	0.718	–
[14], 12.3 nM	0.644	–
[14], 37 nM	0.417	–
[14], 111.1 nM	0.495	–
[14], 333.3 nM	0.688	–
[14], 1000 nM	0.954	–
[14], 3000 nM	0.695	–

CCCCC(CC)CNC(=N)NC(=N)NCCCCCCNC(=N)NC(=N)NCC(CC)CCCC (centres undefined) [Alexidine dihydrochloride]
Details	phenotypic distance	surviving fraction
[1], 4.1 nM	–	0.884
[1], 12.3 nM	–	0.905
[1], 37 nM	–	0.978
[1], 111.1 nM	–	0.877
[1], 333.3 nM	–	0.607
[1], 1000 nM	–	0.602
[1], 3000 nM	–	0.0804
[2], 4.1 nM	–	0.955
[2], 12.3 nM	–	0.825
[2], 37 nM	–	1.1
[2], 111.1 nM	–	1.02
[2], 333.3 nM	–	0.871
[2], 1000 nM	–	0.125
[2], 3000 nM	–	0.013
[3], 4.1 nM	–	0.76
[3], 12.3 nM	–	0.814
[3], 37 nM	–	0.863
[3], 111.1 nM	–	1.16
[3], 333.3 nM	–	0.863
[3], 1000 nM	–	0.504
[3], 3000 nM	–	0.0403
[4], 4.1 nM	–	0.86
[4], 12.3 nM	–	1.11
[4], 37 nM	–	0.972
[4], 111.1 nM	–	0.991
[4], 333.3 nM	–	0.939
[4], 1000 nM	–	0.512
[4], 3000 nM	–	0.0472
[5], 4.1 nM	–	1.01
[5], 12.3 nM	–	1.01
[5], 37 nM	–	0.91
[5], 111.1 nM	–	1.03
[5], 333.3 nM	–	0.828
[5], 1000 nM	–	0.252
[5], 3000 nM	–	0.00967
[6], 4.1 nM	–	0.967
[6], 12.3 nM	–	0.916
[6], 37 nM	–	0.945
[6], 111.1 nM	–	1.02
[6], 333.3 nM	–	1.07
[6], 1000 nM	–	0.368
[6], 3000 nM	–	0.00297
[7], 4.1 nM	–	0.911
[7], 12.3 nM	–	0.933
[7], 37 nM	–	0.847
[7], 111.1 nM	–	1.04
[7], 333.3 nM	–	0.694
[7], 1000 nM	–	0.233
[7], 3000 nM	–	0.0064
[8], 4.1 nM	0.582	–
[8], 12.3 nM	0.387	–
[8], 37 nM	0.788	–
[8], 111.1 nM	0.757	–
[8], 333.3 nM	1.76	–
[8], 1000 nM	1.39	–
[8], 3000 nM	10.1	–
[9], 4.1 nM	0.786	–
[9], 12.3 nM	0.686	–
[9], 37 nM	1.01	–
[9], 111.1 nM	0.884	–
[9], 333.3 nM	0.669	–
[9], 1000 nM	5.57	–
[9], 3000 nM	11.7	–
[10], 4.1 nM	1.28	–
[10], 12.3 nM	1.28	–
[10], 37 nM	1.13	–
[10], 111.1 nM	0.545	–
[10], 333.3 nM	1.44	–
[10], 1000 nM	2.26	–
[10], 3000 nM	11.7	–
[11], 4.1 nM	1.35	–
[11], 12.3 nM	1.19	–
[11], 37 nM	0.769	–
[11], 111.1 nM	0.582	–
[11], 333.3 nM	0.858	–
[11], 1000 nM	4.01	–
[11], 3000 nM	14.9	–
[12], 4.1 nM	0.655	–
[12], 12.3 nM	0.696	–
[12], 37 nM	0.435	–
[12], 111.1 nM	0.715	–
[12], 333.3 nM	1.53	–
[12], 1000 nM	6.34	–
[12], 3000 nM	10.4	–
[13], 4.1 nM	0.597	–
[13], 12.3 nM	1.12	–
[13], 37 nM	0.958	–
[13], 111.1 nM	0.651	–
[13], 333.3 nM	0.84	–
[13], 1000 nM	4.98	–
[13], 3000 nM	19	–
[14], 4.1 nM	1.07	–
[14], 12.3 nM	0.612	–
[14], 37 nM	0.518	–
[14], 111.1 nM	0.461	–
[14], 333.3 nM	1.31	–
[14], 1000 nM	3.13	–
[14], 3000 nM	12.9	–
